Experimental data published in ChEMBL document CHEMBL3885861, “Open TG-GATES”.

Organism: Rattus norvegicus
Experiment: Open TG-GATES - Regimen: Daily Repeat
Type: toxicity, organism-based, Sprague-Dawley
Design: regimen Daily Repeat, gender Male, age 6 weeks
Details: in vivo, po, 30 mg/kg, route gavage, dose level Low; for APTT / Bas / Eos / Fbg / Hb / Ht / Lym / MCH / MCHC / MCV / Mono / Neu / PT / Plat / RBC / Ret / WBC: tissue Blood; for KIDNEY_L / KIDNEY_R / KIDNEY_TOTAL: tissue Kidney; for LIVER: tissue Liver; for A/G / ALP / ALT / AST / BUN / CRE / Ca / Cl / DBIL / GLC / IP / K / LDH / Na / PL / RALB / TBIL / TC / TG / TP / gamma-GTP: tissue Plasma

ClC(Cl)(Cl)Cl [CARBON TETRACHLORIDE]
TERMINAL_BW (72 h, time 3 day): 222 g | APTT (72 h, time 3 day): 18.7 s | Bas (72 h, time 3 day): 0% | Eos (72 h, time 3 day): 1% | Fbg (72 h, time 3 day): 237.4 mg/dL | Hb (72 h, time 3 day): 13.4 g/dL | Ht (72 h, time 3 day): 39.2% | Lym (72 h, time 3 day): 77.4% | MCH (72 h, time 3 day): 22.1 pg | MCHC (72 h, time 3 day): 34.1% | MCV (72 h, time 3 day): 64.8 fL | Mono (72 h, time 3 day): 2.4% | Neu (72 h, time 3 day): 18.8% | PT (72 h, time 3 day): 11.6 s | Plat (72 h, time 3 day): 134.7 x10_4/uL | RBC (72 h, time 3 day): 606.8 x10_4/ul | Ret (72 h, time 3 day): 7.5% | WBC (72 h, time 3 day): 108.2 x10_2/uL | KIDNEY_L (72 h, time 3 day): 1 g | KIDNEY_R (72 h, time 3 day): 1 g | KIDNEY_TOTAL (72 h, time 3 day): 1.9 g | LIVER (72 h, time 3 day): 11.4 g | A/G (72 h, time 3 day): 1.4 | ALP (72 h, time 3 day): 1206 IU/L | ALT (72 h, time 3 day): 44.4 IU/L | AST (72 h, time 3 day): 65.8 IU/L | BUN (72 h, time 3 day): 15.2 mg/dL | CRE (72 h, time 3 day): 0.4 mg/dL | Ca (72 h, time 3 day): 10.8 mg/dL | Cl (72 h, time 3 day): 103.4 meq/L | DBIL (72 h, time 3 day): 0.072 mg/dL | GLC (72 h, time 3 day): 197.8 mg/dL | IP (72 h, time 3 day): 7.3 mg/dL | K (72 h, time 3 day): 4 meq/L | LDH (72 h, time 3 day): 206.4 IU/L | Na (72 h, time 3 day): 140.6 meq/L | PL (72 h, time 3 day): 166 mg/dL | RALB (72 h, time 3 day): 3.2 g/dL | TBIL (72 h, time 3 day): 0.1 mg/dL | TC (72 h, time 3 day): 86.6 mg/dL | TG (72 h, time 3 day): 72.6 mg/dL | TP (72 h, time 3 day): 5.6 g/dL | gamma-GTP (72 h, time 3 day): 1.4 IU/L | TERMINAL_BW ([…], time 7 day): 246 g | TERMINAL_BW ([…], time 14 day): 300.3 g | TERMINAL_BW ([…], time 28 day): 401.4 g | APTT ([…], time 7 day): 19.6 s | Bas ([…], time 7 day): 0% | Eos ([…], time 7 day): 0.8% | Fbg ([…], time 7 day): 232.6 mg/dL | Hb ([…], time 7 day): 14.1 g/dL | Ht ([…], time 7 day): 41% | Lym ([…], time 7 day): 82% | MCH ([…], time 7 day): 21.2 pg | MCHC ([…], time 7 day): 34.5% | MCV ([…], time 7 day): 61.7 fL | Mono ([…], time 7 day): 2.6% | Neu ([…], time 7 day): 14% | PT ([…], time 7 day): 11.9 s | Plat ([…], time 7 day): 112.6 x10_4/uL | RBC ([…], time 7 day): 666.4 x10_4/ul | Ret ([…], time 7 day): 5.5% | WBC ([…], time 7 day): 96.8 x10_2/uL | APTT ([…], time 14 day): 20.3 s | Bas ([…], time 14 day): 0% | Eos ([…], time 14 day): 0.8% | Fbg ([…], time 14 day): 238.4 mg/dL | Hb ([…], time 14 day): 14.6 g/dL | Ht ([…], time 14 day): 43% | Lym ([…], time 14 day): 80% | MCH ([…], time 14 day): 20.1 pg | MCHC ([…], time 14 day): 33.9% | MCV ([…], time 14 day): 59.4 fL | Mono ([…], time 14 day): 2% | Neu ([…], time 14 day): 16.8% | PT ([…], time 14 day): 12 s | Plat ([…], time 14 day): 113.3 x10_4/uL | RBC ([…], time 14 day): 724.8 x10_4/ul | Ret ([…], time 14 day): 3.7% | WBC ([…], time 14 day): 110.3 x10_2/uL | APTT ([…], time 28 day): 21.2 s | Bas ([…], time 28 day): 0% | Eos ([…], time 28 day): 1% | Fbg ([…], time 28 day): 238 mg/dL | Hb ([…], time 28 day): 14.8 g/dL | Ht ([…], time 28 day): 43.3% | Lym ([…], time 28 day): 85.4% | MCH ([…], time 28 day): 19.1 pg | MCHC ([…], time 28 day): 34.2% | MCV ([…], time 28 day): 55.8 fL | Mono ([…], time 28 day): 2.8% | Neu ([…], time 28 day): 10.2% | PT ([…], time 28 day): 12.3 s | Plat ([…], time 28 day): 113.3 x10_4/uL | RBC ([…], time 28 day): 776.8 x10_4/ul | Ret ([…], time 28 day): 2.8% | WBC ([…], time 28 day): 104.8 x10_2/uL | KIDNEY_L ([…], time 7 day): 1 g | KIDNEY_R ([…], time 7 day): 1 g | KIDNEY_TOTAL ([…], time 7 day): 2.1 g | KIDNEY_L ([…], time 14 day): 1.2 g | KIDNEY_R ([…], time 14 day): 1.2 g | KIDNEY_TOTAL ([…], time 14 day): 2.3 g | KIDNEY_L ([…], time 28 day): 1.3 g | KIDNEY_R ([…], time 28 day): 1.3 g | KIDNEY_TOTAL ([…], time 28 day): 2.7 g | LIVER ([…], time 7 day): 12.4 g | LIVER ([…], time 14 day): 14.4 g | LIVER ([…], time 28 day): 19.2 g | A/G ([…], time 7 day): 1.6 | ALP ([…], time 7 day): 1004.8 IU/L | ALT ([…], time 7 day): 39.2 IU/L | AST ([…], time 7 day): 70.8 IU/L | BUN ([…], time 7 day): 14.8 mg/dL | CRE ([…], time 7 day): 0.4 mg/dL | Ca ([…], time 7 day): 10.7 mg/dL | Cl ([…], time 7 day): 104.8 meq/L | DBIL ([…], time 7 day): 0.076 mg/dL | GLC ([…], time 7 day): 200.8 mg/dL | IP ([…], time 7 day): 7.7 mg/dL | K ([…], time 7 day): 4.1 meq/L | LDH ([…], time 7 day): 202 IU/L | Na ([…], time 7 day): 141.6 meq/L | PL ([…], time 7 day): 159.8 mg/dL | RALB ([…], time 7 day): 3.5 g/dL | TBIL ([…], time 7 day): 0.1 mg/dL | TC ([…], time 7 day): 75.2 mg/dL | TG ([…], time 7 day): 87.2 mg/dL | TP ([…], time 7 day): 5.6 g/dL | gamma-GTP ([…], time 7 day): 1.2 IU/L | A/G ([…], time 14 day): 1.5 | ALP ([…], time 14 day): 898.4 IU/L | ALT ([…], time 14 day): 42.2 IU/L | AST ([…], time 14 day): 75 IU/L | BUN ([…], time 14 day): 15.4 mg/dL | CRE ([…], time 14 day): 0.4 mg/dL | Ca ([…], time 14 day): 10.5 mg/dL | Cl ([…], time 14 day): 103.4 meq/L | DBIL ([…], time 14 day): 0.056 mg/dL | GLC ([…], time 14 day): 201.4 mg/dL | IP ([…], time 14 day): 8 mg/dL | K ([…], time 14 day): 3.7 meq/L | LDH ([…], time 14 day): 207.4 IU/L | Na ([…], time 14 day): 141.6 meq/L | PL ([…], time 14 day): 138.6 mg/dL | RALB ([…], time 14 day): 3.6 g/dL | TBIL ([…], time 14 day): 0.1 mg/dL | TC ([…], time 14 day): 67.4 mg/dL | TG ([…], time 14 day): 55 mg/dL | TP ([…], time 14 day): 6 g/dL | gamma-GTP ([…], time 14 day): 1 IU/L | A/G ([…], time 28 day): 1.3 | ALP ([…], time 28 day): 634.2 IU/L | ALT ([…], time 28 day): 40 IU/L | AST ([…], time 28 day): 75.2 IU/L | BUN ([…], time 28 day): 17.2 mg/dL | CRE ([…], time 28 day): 0.4 mg/dL | Ca ([…], time 28 day): 10.6 mg/dL | Cl ([…], time 28 day): 102.2 meq/L | DBIL ([…], time 28 day): 0.072 mg/dL | GLC ([…], time 28 day): 211.2 mg/dL | IP ([…], time 28 day): 6.6 mg/dL | K ([…], time 28 day): 3.9 meq/L | LDH ([…], time 28 day): 228 IU/L | Na ([…], time 28 day): 140.6 meq/L | PL ([…], time 28 day): 132 mg/dL | RALB ([…], time 28 day): 3.5 g/dL | TBIL ([…], time 28 day): 0.1 mg/dL | TC ([…], time 28 day): 59.6 mg/dL | TG ([…], time 28 day): 86.6 mg/dL | TP ([…], time 28 day): 6.2 g/dL | gamma-GTP ([…], time 28 day): 0.8 IU/L
